Laboratory results published in patent US20220162192A1 (ESCAPE Bio, Inc., priority 2019, published 2022).
Read-outs that look alike come from different tables or passages of the source.

How the values were obtained:
[1] = molecular target: T1, Recombinant wild type LRRK2 protein (Homo sapiens, UniProt Q5S007); assay: LanthaScreen Kinase Activity Assay (TR-FRET), wild type LRRK2; type: biochemical; settings: 25 μM ATP, 400 nM LRRKtide, 2.9 nM kinase, 60 min at room temperature, read-out: LRRK2 WT IC50
T1 construct: purchased Life Technologies PR8604B
Experimental: (§1) LRRK2 kinase activity was measured using a LanthaScreen™ Kinase Activity Assay from ThermoFisher Scientific. Recombinant wild type or G2019S-LRRK2 protein (Life Technologies, PR8604B or PV4881, respectively), was incubated with a fluorescein-labeled peptide substrate called LRRKtide that is based upon ezrin/radixin/moesin (ERM) (Life Technologies, PV4901) in the presence of ATP and serially diluted compound. After an incubation period of 1 hr, the phosphotransferase activity was stopped and a terbium-labelled anti-pERM antibody (Life Technologies, PV4899) was added to detect the phosphorylation of LRRKtide by measuring the time resolved-Forster resonant energy transfer (TR-FRET) signal from the terbium label on the antibody to the fluorescein tag on LRRKtide, expressed as the 520 nm/495 nm emission ratio. Compound-dependent inhibition of the TR-FRET signal was used to generate a concentration-response curve for IC50 determination.
(§2) The assay was carried out under the following protocol conditions: 1 mM compound in DMSO was serially diluted 1:3, 11 points in DMSO with a Biomek FX and 0.1 μL of the diluted compound was subsequently stamped into the assay plate (384-well format Lumitrac 200, Greiner, 781075) with an Echo Labcyte such that the final compound concentration in the assay was 10 μM to […]. Subsequently, 5 μL of 2× kinase solution (2.9 nM final concentration) was added to the assay plate in assay buffer composed of 50 mM Tris pH 8.5 (Sigma, T6791), 5 mM MgCl2 (Fluka, 63020), 1 mM EGTA (Sigma, E3889), 0.01% BRIJ-35 (Sigma, P1254) and 2 mM DTT. The reaction was started by addition of 2×ATP/LRRKtide solution in assay buffer such that the final concentration was 400 nM LRRKtide and 25 μM ATP. After 60 min incubation at room temperature, the reaction was stopped by addition of […] containing a final concentration of 2 nM anti-pERM antibody and 10 mM EDTA. After a 30 min incubation at RT, the TR-FRET signal was measured on a Wallac 2104 EnVision® multilabel reader at an excitation wavelength of 340 nm and reading emission at 520 nm and 495 nm. The ratio of the 520 nm and 495 nm emission was used to analyze the data.

[2] = molecular target: T2, Recombinant G2019S-LRRK2 protein (Homo sapiens, UniProt Q5S007, G2019S); assay: LanthaScreen Kinase Activity Assay (TR-FRET), G2019S-LRRK2; type: biochemical; settings: class symbols; 25 μM ATP, 400 nM LRRKtide, 2.9 nM kinase, 60 min at room temperature
T2 construct: purchased Life Technologies PV4881
Experimental: as §1, §2

T2 sequence (Q5S007 whole entry G2019S): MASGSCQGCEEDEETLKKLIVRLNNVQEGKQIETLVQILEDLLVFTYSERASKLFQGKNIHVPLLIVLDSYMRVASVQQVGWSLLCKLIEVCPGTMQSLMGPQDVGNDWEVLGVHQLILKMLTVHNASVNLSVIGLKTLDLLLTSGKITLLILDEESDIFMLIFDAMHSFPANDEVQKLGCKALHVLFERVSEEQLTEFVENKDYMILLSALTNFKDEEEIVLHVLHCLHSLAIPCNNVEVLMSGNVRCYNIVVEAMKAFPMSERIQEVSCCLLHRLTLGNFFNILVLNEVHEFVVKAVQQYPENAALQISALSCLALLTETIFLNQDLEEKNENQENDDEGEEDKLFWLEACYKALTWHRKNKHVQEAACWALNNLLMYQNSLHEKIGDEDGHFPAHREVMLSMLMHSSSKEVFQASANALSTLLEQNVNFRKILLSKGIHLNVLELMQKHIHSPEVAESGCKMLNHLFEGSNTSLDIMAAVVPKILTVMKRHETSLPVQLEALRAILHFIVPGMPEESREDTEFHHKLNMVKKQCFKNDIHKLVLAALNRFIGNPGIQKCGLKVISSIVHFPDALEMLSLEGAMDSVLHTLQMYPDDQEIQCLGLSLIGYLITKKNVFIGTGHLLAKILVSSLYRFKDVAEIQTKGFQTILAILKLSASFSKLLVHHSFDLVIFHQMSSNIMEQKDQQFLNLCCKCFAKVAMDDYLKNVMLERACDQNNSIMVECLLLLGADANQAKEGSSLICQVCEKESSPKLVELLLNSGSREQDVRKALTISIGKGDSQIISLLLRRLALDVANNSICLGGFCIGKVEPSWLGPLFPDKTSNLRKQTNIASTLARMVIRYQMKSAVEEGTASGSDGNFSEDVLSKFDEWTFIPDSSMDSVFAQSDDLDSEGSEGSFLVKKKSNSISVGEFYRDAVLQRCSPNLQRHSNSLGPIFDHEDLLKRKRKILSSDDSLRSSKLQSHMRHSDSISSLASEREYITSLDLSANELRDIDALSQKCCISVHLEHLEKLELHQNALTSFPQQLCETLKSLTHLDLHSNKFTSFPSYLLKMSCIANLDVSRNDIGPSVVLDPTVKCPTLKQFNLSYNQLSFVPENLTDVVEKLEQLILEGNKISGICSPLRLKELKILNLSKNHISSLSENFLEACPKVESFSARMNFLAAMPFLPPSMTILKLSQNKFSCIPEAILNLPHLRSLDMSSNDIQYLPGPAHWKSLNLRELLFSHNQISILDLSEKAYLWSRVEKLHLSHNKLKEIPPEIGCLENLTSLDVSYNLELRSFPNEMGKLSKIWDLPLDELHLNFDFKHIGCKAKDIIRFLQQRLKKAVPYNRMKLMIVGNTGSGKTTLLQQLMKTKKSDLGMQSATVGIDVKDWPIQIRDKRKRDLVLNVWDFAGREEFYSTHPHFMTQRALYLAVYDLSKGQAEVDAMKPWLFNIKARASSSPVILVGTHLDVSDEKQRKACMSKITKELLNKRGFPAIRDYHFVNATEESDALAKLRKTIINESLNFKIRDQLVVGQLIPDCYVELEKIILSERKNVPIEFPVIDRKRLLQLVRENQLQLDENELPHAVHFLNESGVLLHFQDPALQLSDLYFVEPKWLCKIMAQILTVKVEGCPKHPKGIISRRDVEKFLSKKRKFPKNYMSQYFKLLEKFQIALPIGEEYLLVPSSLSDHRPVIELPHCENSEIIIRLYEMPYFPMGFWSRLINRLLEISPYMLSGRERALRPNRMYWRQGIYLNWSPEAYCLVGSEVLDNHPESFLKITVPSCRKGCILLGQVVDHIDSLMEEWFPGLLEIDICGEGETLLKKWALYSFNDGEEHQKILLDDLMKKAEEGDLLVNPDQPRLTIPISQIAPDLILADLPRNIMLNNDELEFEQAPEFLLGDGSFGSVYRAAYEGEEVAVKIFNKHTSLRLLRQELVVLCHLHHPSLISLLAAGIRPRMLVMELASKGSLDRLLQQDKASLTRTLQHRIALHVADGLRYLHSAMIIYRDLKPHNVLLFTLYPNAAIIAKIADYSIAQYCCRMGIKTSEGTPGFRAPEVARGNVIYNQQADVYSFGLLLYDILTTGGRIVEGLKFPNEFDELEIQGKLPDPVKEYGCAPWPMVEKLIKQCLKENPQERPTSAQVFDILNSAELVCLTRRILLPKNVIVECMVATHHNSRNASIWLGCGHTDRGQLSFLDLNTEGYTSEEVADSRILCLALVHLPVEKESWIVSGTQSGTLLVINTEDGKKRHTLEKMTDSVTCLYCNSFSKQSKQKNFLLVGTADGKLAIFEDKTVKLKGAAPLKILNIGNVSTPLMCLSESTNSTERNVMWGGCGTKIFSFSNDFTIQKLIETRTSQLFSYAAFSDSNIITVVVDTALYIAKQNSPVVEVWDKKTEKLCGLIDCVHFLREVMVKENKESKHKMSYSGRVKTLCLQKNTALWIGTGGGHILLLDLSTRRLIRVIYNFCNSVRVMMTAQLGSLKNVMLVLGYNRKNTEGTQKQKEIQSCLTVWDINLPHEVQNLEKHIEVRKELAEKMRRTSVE
T1 sequence (Q5S007 whole entry): as the sequence (Q5S007 whole entry G2019S) above, with S2019G counted along it

Row | Structure (SMILES) | IC50 ([1]; class symbols) [nM] | IC50 [2] [nM] | IC50 ([1]; numeric bound instead of class symbol) [nM]
1 | Cn1ncc2c(F)c(C(=O)Nc3ccc4[nH]nc(C5=CCCO5)c4c3)c(F)cc21 [Example 72, N-(3-(4,5-Dihydrofuran-2-yl)-1H-indazol-5-yl)-4,6-difluoro-1-methyl-1H-indazole-5-carboxamide] | 1000 to 10000 | 100 to 1000 | 
2 | Cc1noc(C)c1-c1n[nH]c2ccc(NC(=O)c3c(F)cc4c(cnn4C)c3F)cc12 [Example 36, N-(3-(3,5-Dimethylisoxazol-4-yl)-1H-indazol-5-yl)-4,6-difluoro-1-methyl-1H-indazole-5-carboxamide] |  | 1000 to 10000 | > 10000
3 | Cc1n[nH]c2ccc(NC(=O)c3ccn4cnnc4c3)cc12 [Example 5, N-(3-Methyl-1H-indazol-5-yl)-[1,2,4]triazolo[4,3-a]pyridine-7-carboxamide] | 1000 to 10000 | 1000 to 10000 | 
4 | Cc1cc2cncn2c(C)c1C(=O)Nc1ccc2[nH]nc(-c3ccccc3)c2c1 [Example 69, 5,7-Dimethyl-N-(3-phenyl-1H-indazol-5-yl)imidazo[1,5-a]pyridine-6-carboxamide] | ≤ 100 | ≤ 100 | 
5 | Cn1ncc2c(F)c(C(=O)Nc3ccc4[nH]nc(-c5cnccc5C(F)(F)F)c4c3)c(F)cc21 [Example 91, 4,6-Difluoro-1-methyl-N-(3-(4-(trifluoromethyl)pyridin-3-yl)-1H-indazol-5-yl)-1H-indazole-5-carboxamide] | 1000 to 10000 | 100 to 1000 | 
6 | Cc1cn2cncc2cc1C(=O)Nc1ccc2[nH]nc(-c3ccoc3)c2c1 [Example 152, N-(3-(Furan-3-yl)-1H-indazol-5-yl)-6-methylimidazo[1,5-a]pyridine-7-carboxamide] | ≤ 100 | ≤ 100 | 
7 | Cc1cnccc1-c1n[nH]c2ccc(NC(=O)c3c(F)cc4c(cnn4C)c3F)cc12 [Example 40, 4,6-Difluoro-1-methyl-N-(3-(3-methylpyridin-4-yl)-1H-indazol-5-yl)-1H-indazole-5-carboxamide] | 1000 to 10000 | 100 to 1000 | 
8 | Cc1cc2nn[nH]c2cc1C(=O)Nc1ccc2[nH]nc(-c3cccc(N4CCOCC4)c3)c2c1 [Example 2, 5-Methyl-N-(3-(3-morpholinophenyl)-1H-indazol-5-yl)-1H-benzo[d][1,2,3]triazole-6-carboxamide] | ≤ 100 | ≤ 100 | 
9 | Cc1cc2cncn2cc1C(=O)Nc1ccc2[nH]nc(-c3ccoc3)c2c1 [Example 146, N-(3-(Furan-3-yl)-1H-indazol-5-yl)-7-methylimidazo[1,5-a]pyridine-6-carboxamide] | ≤ 100 | ≤ 100 | 
10 | O=C(Nc1ccc2[nH]nc(-c3ccoc3)c2c1)c1nc2ccncc2s1 [Example 171, N-(3-(Furan-3-yl)-1H-indazol-5-yl)thiazolo[5,4-c]pyridine-2-carboxamide] | ≤ 100 | ≤ 100 | 
11 | O=C(Nc1ccc2[nH]nc(-c3ccccc3)c2c1)c1c(Cl)cn2cnnc2c1Cl [Example 63, 6,8-dichloro-N-(3-phenyl-1H-indazol-5-yl)-[1,2,4]triazolo[4,3-a]pyridine-7-carboxamide] | ≤ 100 | ≤ 100 | 
12 | CC1(C)c2nncn2CCN1C(=O)Nc1ccc2[nH]nc(-c3ccoc3)c2c1 [Example 172, N-(3-(Furan-3-yl)-1H-indazol-5-yl)-8,8-dimethyl-5,6-dihydro-[1,2,4]triazolo[4,3-a]pyrazine-7(8H)-carboxamide] | 100 to 1000 | 100 to 1000 | 
13 | O=C(Nc1ccc2[nH]nc(-c3ccccc3)c2c1)c1cc2[nH]ncc2cc1C(F)(F)F [Example 70, N-(3-Phenyl-1H-indazol-5-yl)-5-(trifluoromethyl)-1H-indazole-6-carboxamide] | 100 to 1000 | ≤ 100 | 

Other lines, results leading:

Row | IC50 ([1]; class symbols) [nM] | IC50 [2] [nM] | IC50 ([1]; numeric bound instead of class symbol) [nM] | Structure (SMILES)
14 | ≤ 100 | ≤ 100 |  | O=C(Nc1ccc2[nH]nc(-c3ccoc3)c2c1)c1ccc2cnsc2c1 [Example 156, N-(3-(Furan-3-yl)-1H-indazol-5-yl)benzo[d]isothiazole-6-carboxamide]
15 | 100 to 1000 | ≤ 100 |  | Cc1n[nH]c2ccc(NC(=O)c3c(F)cc4c(cnn4C)c3F)cc12 [Example 51, 4,6-Difluoro-1-methyl-N-(3-methyl-1H-indazol-5-yl)-1H-indazole-5-carboxamide]
16 | ≤ 100 | ≤ 100 |  | COc1cccc(-c2n[nH]c3ccc(NC(=O)c4c(F)cc5c(cnn5C)c4F)cc23)c1 [Example 84, 4,6-Difluoro-N-(3-(3-methoxyphenyl)-1H-indazol-5-yl)-1-methyl-1H-indazole-5-carboxamide]
17 | 1000 to 10000 | ≤ 100 |  | COc1n[nH]c2ccc(NC(=O)c3c(F)cc4c(cnn4C)c3F)cc12 [Example 106, 4,6-Difluoro-N-(3-methoxy-1H-indazol-5-yl)-1-methyl-1H-indazole-5-carboxamide]
18 | 100 to 1000 | ≤ 100 |  | Cc1n[nH]c2ccc(NC(=O)c3c(Cl)cn4cnnc4c3Cl)cc12 [Example 56, 6,8-Dichloro-N-(3-methyl-1H-indazol-5-yl)-[1,2,4]triazolo[4,3-a]pyridine-7-carboxamide]
19 | ≤ 100 | ≤ 100 |  | Cn1ncc2c(F)c(C(=O)Nc3cc4c(-c5ccoc5)n[nH]c4cc3F)c(F)cc21 [Example 144, 4,6-Difluoro-N-(6-fluoro-3-(furan-3-yl)-1H-indazol-5-yl)-1-methyl-1H-indazole-5-carboxamide]
20 | 1000 to 10000 | ≤ 100 |  | Cc1cc2cnnn2c(C)c1C(=O)Nc1ccc2[nH]nc(C)c2c1 [Example 49, 5,7-Dimethyl-N-(3-methyl-1H-indazol-5-yl)-[1,2,3]triazolo[1,5-a]pyridine-6-carboxamide]
21 | 100 to 1000 | ≤ 100 |  | Cc1nc2cncn2c(C)c1C(=O)Nc1ccc2[nH]nc(-c3ccoc3)c2c1 [Example 112, N-(3-(Furan-3-yl)-1H-indazol-5-yl)-2,4-dimethylimidazo[1,5-a]pyrimidine-3-carboxamide]
22 | 100 to 1000 | ≤ 100 |  | O=C(Nc1ccc2[nH]nc(-c3ccoc3)c2c1)c1ccc2ncoc2c1 [Example 116, N-(3-(furan-3-yl)-1H-indazol-5-yl)benzo[d]oxazole-6-carboxamide]
23 | ≤ 100 | ≤ 100 |  | Cc1cc2[nH]ncc2cc1C(=O)Nc1ccc2[nH]nc(-c3ccccc3)c2c1 [Example 21, 6-Methyl-N-(3-phenyl-1H-indazol-5-yl)-1H-indazole-5-carboxamide]
24 | ≤ 100 | ≤ 100 |  | Cn1ncc2c(F)c(C(=O)Nc3ccc4[nH]nc(-c5ccon5)c4c3)c(F)cc21 [Example 135, 4,6-Difluoro-N-(3-(isoxazol-3-yl)-1H-indazol-5-yl)-1-methyl-1H-indazole-5-carboxamide]
25 | ≤ 100 | ≤ 100 |  | Cc1cc2c(cnn2C)nc1C(=O)Nc1ccc2[nH]nc(-c3cnco3)c2c1 [Example 160, 1,6-Dimethyl-N-(3-(oxazol-5-yl)-1H-indazol-5-yl)-1H-pyrazolo[4,3-b]pyridine-5-carboxamide]
26 | 100 to 1000 | ≤ 100 |  | Cn1ncc2cc(C(=O)Nc3ccc4[nH]nc(-c5cnco5)c4c3)ncc21 [Example 167, 1-Methyl-N-(3-(oxazol-5-yl)-1H-indazol-5-yl)-1H-pyrazolo[3,4-c]pyridine-5-carboxamide]
27 | ≤ 100 | ≤ 100 |  | Cn1cnc2ccc(C(=O)Nc3ccc4[nH]nc(-c5ccoc5)c4c3)cc21 [Example 131, N-(3-(Furan-3-yl)-1H-indazol-5-yl)-1-methyl-1H-benzo[d]imidazole-6-carboxamide]
28 | 100 to 1000 | ≤ 100 |  | Cc1cc2cncn2cc1C(=O)Nc1ccc2[nH]nc(C)c2c1 [Example 145, 7-Methyl-N-(3-methyl-1H-indazol-5-yl)imidazo[1,5-a]pyridine-6-carboxamide]
29 | ≤ 100 | ≤ 100 |  | Cc1ncc(-c2n[nH]c3ccc(NC(=O)c4c(F)cc5c(cnn5C)c4F)cc23)s1 [Example 95, 4,6-Difluoro-1-methyl-N-(3-(2-methylthiazol-5-yl)-1H-indazol-5-yl)-1H-indazole-5-carboxamide]
30 | 100 to 1000 | ≤ 100 |  | Cn1ncc2c(F)c(C(=O)Nc3ccc4[nH]nc(-c5ccccc5F)c4c3)c(F)cc21 [Example 78, 4,6-Difluoro-N-(3-(2-fluorophenyl)-1H-indazol-5-yl)-1-methyl-1H-indazole-5-carboxamide]
